Reference: PubChem BioAssay AID256 (DTP/NCI, 2004)
“And” between values parts separate entries of the source, which are not always exact repeats. Identical values can stand only once. Toxic doses and inconclusive results are not listed. Rule for the calls: active = survival T/C of 150% or more; inactive = T/C below 125% in these data.

System: CD2F1 mice, L1210 leukemia ip, survival T/C
Assay: NCI In Vivo Anticancer Drug Screen. Data for tumor model L1210 Leukemia (intraperitoneal) in CD2F1 (CDF1) mice
Conditions: higher = longer survival
In short: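 Transplantable tumor in mice; compound-treated vs vehicle-treated groups. Read-out = treated/control ratio of the measured endpoint.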

[1] = endpoint: mean survival time, dose: 100.0 mg/kg/injection, schedule: Q01DX009 (ip), vehicle: saline with Tween-80
[2] = endpoint: mean survival time, dose: 100.0 mg/kg/injection, schedule: Q04DX003 (ip), vehicle: saline with Tween-80
[3] = endpoint: mean survival time, dose: 200.0 mg/kg/injection, schedule: Q01DX009 (ip), vehicle: saline with Tween-80
[4] = endpoint: mean survival time, dose: 200.0 mg/kg/injection, schedule: Q04DX003 (ip), vehicle: saline with Tween-80
[5] = endpoint: mean survival time, dose: 400.0 mg/kg/injection, schedule: Q04DX003 (ip), vehicle: saline with Tween-80
[6] = endpoint: mean survival time, dose: 50.0 mg/kg/injection, schedule: Q01DX009 (ip), vehicle: saline
[7] = endpoint: mean survival time, dose: 100.0 mg/kg/injection, schedule: Q01DX009 (ip), vehicle: saline
[8] = endpoint: mean survival time, dose: 200.0 mg/kg/injection, schedule: Q01DX009 (ip), vehicle: saline
[9] = endpoint: mean survival time, dose: 400.0 mg/kg/injection, schedule: Q01DX009 (ip), vehicle: saline
[10] = endpoint: mean survival time, dose: 100.0 mg/kg/injection, schedule: Q01DX001 (ip), vehicle: saline with Tween-80
[11] = endpoint: mean survival time, dose: 200.0 mg/kg/injection, schedule: Q01DX001 (ip), vehicle: saline with Tween-80
[12] = endpoint: mean survival time, dose: 400.0 mg/kg/injection, schedule: Q01DX001 (ip), vehicle: saline with Tween-80
[13] = endpoint: mean survival time, dose: 25.0 mg/kg/injection, schedule: Q04DX002 (ip), vehicle: saline with Tween-80
[14] = endpoint: mean survival time, dose: 50.0 mg/kg/injection, schedule: Q04DX002 (ip), vehicle: saline with Tween-80
[15] = endpoint: mean survival time, dose: 50.0 mg/kg/injection, schedule: Q01DX009 (ip), vehicle: saline with Tween-80

Measured: T/C

O=C1C=C(N2CCOCC2)c2ccccc2C1=O
inactive: endpoint: mean survival time, dose: 75.0 mg/kg/injection, schedule: Q01DX001 (ip), vehicle: saline 100 % of control | endpoint: mean survival time, dose: 150.0 mg/kg/injection, schedule: Q01DX001 (ip), vehicle: saline 94 % of control

O=C(NS(=O)(=O)c1ccc(Cl)cc1)OCCCl
inactive: [1] 96 % of control | [2] 97 % of control | [3] 96 % of control | [4] 97 % of control | [5] 102 % of control

CC1C(C)C1Cl (stereo not drawn)
inactive: endpoint: mean survival time, dose: 50.0 mg/kg/injection, schedule: Q01DX005 (ip), vehicle: saline 95 % of control | [6] 89 % of control | endpoint: mean survival time, dose: 50.0 mg/kg/injection, schedule: Q04DX002 (ip), vehicle: saline 94 % of control | endpoint: mean survival time, dose: 100.0 mg/kg/injection, schedule: Q01DX005 (ip), vehicle: saline 95 % of control | [7] 93 % of control | endpoint: mean survival time, dose: 100.0 mg/kg/injection, schedule: Q04DX002 (ip), vehicle: saline 97 % of control | endpoint: mean survival time, dose: 200.0 mg/kg/injection, schedule: Q01DX005 (ip), vehicle: saline 109 % of control | [8] 93 % of control | endpoint: mean survival time, dose: 200.0 mg/kg/injection, schedule: Q04DX002 (ip), vehicle: saline 94 % of control | endpoint: mean survival time, dose: 400.0 mg/kg/injection, schedule: Q01DX005 (ip), vehicle: saline 106 % of control | [9] 93 % of control | endpoint: mean survival time, dose: 400.0 mg/kg/injection, schedule: Q04DX002 (ip), vehicle: saline 97 % of control

CC1=CCCC2C1(C)CCC(C)C2(C)Cc1cc(O)ccc1O (stereo not drawn)
inactive: endpoint: median survival time, dose: 6.25 mg/kg/injection, schedule: Q01DX005 (ip), vehicle: Klucel (hydroxypropylcellulose) (HPC) 107 % of control | endpoint: median survival time, dose: 12.5 mg/kg/injection, schedule: Q01DX005 (ip), vehicle: Klucel (hydroxypropylcellulose) (HPC) 103 % of control | endpoint: median survival time, dose: 25.0 mg/kg/injection, schedule: Q01DX005 (ip), vehicle: Klucel (hydroxypropylcellulose) (HPC) 98 % of control | endpoint: median survival time, dose: 50.0 mg/kg/injection, schedule: Q01DX005 (ip), vehicle: Klucel (hydroxypropylcellulose) (HPC) 102 % of control | endpoint: median survival time, dose: 100.0 mg/kg/injection, schedule: Q01DX005 (ip), vehicle: Klucel (hydroxypropylcellulose) (HPC) 97 % of control

COc1cc2c(c(OC)c1OC)-c1ccc(SC)c(=O)cc1[C@@H](NC1OC(CO)C(O)C(O)C1O)CC2 (stereo partly drawn)
inactive: endpoint: mean survival time, dose: 3.13 mg/kg/injection, schedule: Q01DX009 (ip), vehicle: saline 117 % of control

C1=C(c2ccccc2)N(c2ccccc2)N=C(c2ccccc2)C1
inactive: [10] 94 % of control | [11] 94 % of control | [12] 98 % of control

O=C(Nc1cc(Cl)c(NC(=O)c2ccccc2)c(Cl)c1)c1ccccc1
inactive: [10] 96 % of control | [11] 89 % of control | [12] 86 % of control

CN(CN1C(=O)CCC1=O)CN1C(=O)CCC1=O
inactive: endpoint: median survival time, dose: 50.0 mg/kg/injection, schedule: Q01DX005 (ip), vehicle: saline 105 % of control | endpoint: median survival time, dose: 100.0 mg/kg/injection, schedule: Q01DX005 (ip), vehicle: saline 113 % of control | endpoint: median survival time, dose: 200.0 mg/kg/injection, schedule: Q01DX005 (ip), vehicle: saline 121 % of control | endpoint: median survival time, dose: 400.0 mg/kg/injection, schedule: Q01DX005 (ip), vehicle: saline 121 % of control

CCCCOCCSc1ccccc1
inactive: endpoint: mean survival time, dose: 100.0 mg/kg/injection, schedule: Q01DX001 (ip), vehicle: saline 96 % of control | endpoint: mean survival time, dose: 200.0 mg/kg/injection, schedule: Q01DX001 (ip), vehicle: saline 93 % of control

c1c(NC2=NCCO2)cc2c3c1CCCN3CCC2
inactive: [2] 92 % of control | [4] 97 % of control

CCOC(=O)C1=C(C)NC(C)=C(C(=O)OCC)C1C
inactive: endpoint: mean survival time, dose: 50.0 mg/kg/injection, schedule: Q04DX003 (ip), vehicle: saline with Tween-80 98 % of control and 100 % of control | [2] 101 % of control and 103 % of control and 108 % of control | [4] 95 % of control and 98 % of control and 104 % of control | [5] 122 % of control

CCOc1ccc(OCC)c(NC(=O)Nc2cccc(Cl)c2)c1
inactive: [13] 92 % of control | [14] 92 % of control | endpoint: mean survival time, dose: 100.0 mg/kg/injection, schedule: Q04DX002 (ip), vehicle: saline with Tween-80 88 % of control

NC(N)=NC(N)=Nc1ccc(Cl)c(Cl)c1
inactive: endpoint: mean survival time, dose: 50.0 mg/kg/injection, schedule: Q01DX001 (ip), vehicle: Klucel (hydroxypropylcellulose) (HPC) 94 % of control | endpoint: mean survival time, dose: 100.0 mg/kg/injection, schedule: Q01DX001 (ip), vehicle: Klucel (hydroxypropylcellulose) (HPC) 105 % of control | endpoint: mean survival time, dose: 150.0 mg/kg/injection, schedule: Q01DX009 (ip), vehicle: saline 108 % of control | endpoint: mean survival time, dose: 200.0 mg/kg/injection, schedule: Q01DX001 (ip), vehicle: Klucel (hydroxypropylcellulose) (HPC) 94 % of control

CN(CC#N)N=Nc1ccc(C(N)=O)cc1
inactive: endpoint: mean survival time, dose: 4.68 mg/kg/injection, schedule: Q01DX009 (ip), vehicle: Klucel (hydroxypropylcellulose) (HPC) 96 % of control and 98 % of control | endpoint: mean survival time, dose: 9.37 mg/kg/injection, schedule: Q01DX009 (ip), vehicle: Klucel (hydroxypropylcellulose) (HPC) 102 % of control and 104 % of control | endpoint: mean survival time, dose: 18.75 mg/kg/injection, schedule: Q01DX009 (ip), vehicle: Klucel (hydroxypropylcellulose) (HPC) 95 % of control and 98 % of control | endpoint: mean survival time, dose: 37.5 mg/kg/injection, schedule: Q01DX009 (ip), vehicle: Klucel (hydroxypropylcellulose) (HPC) 102 % of control and 107 % of control | endpoint: mean survival time, dose: 75.0 mg/kg/injection, schedule: Q01DX009 (ip), vehicle: Klucel (hydroxypropylcellulose) (HPC) 118 % of control

NCCc1ccc(O)c(O)c1
inactive: endpoint: mean survival time, dose: 25.0 mg/kg/injection, schedule: Q01DX009 (ip), vehicle: saline 97 % of control | [6] 109 % of control | [7] 122 % of control and 109 % of control | [8] 112 % of control | [9] 119 % of control | endpoint: median survival time, dose: 0.1 mg/kg/injection, schedule: Q01DX009 (ip), vehicle: saline 98 % of control and 107 % of control | endpoint: median survival time, dose: 0.5 mg/kg/injection, schedule: Q01DX009 (ip), vehicle: saline 101 % of control and 107 % of control | endpoint: median survival time, dose: 1.0 mg/kg/injection, schedule: Q01DX009 (ip), vehicle: saline 101 % of control and 107 % of control | endpoint: median survival time, dose: 10.0 mg/kg/injection, schedule: Q01DX009 (ip), vehicle: saline 97 % of control | endpoint: median survival time, dose: 25.0 mg/kg/injection, schedule: Q01DX020 (ip), vehicle: saline 101 % of control | endpoint: median survival time, dose: 50.0 mg/kg/injection, schedule: Q01DX020 (ip), vehicle: saline 109 % of control | endpoint: median survival time, dose: 50.0 mg/kg/injection, schedule: Q04DX002 (ip), vehicle: saline with Tween-80 111 % of control | endpoint: median survival time, dose: 100.0 mg/kg/injection, schedule: Q01DX009 (ip), vehicle: saline 113 % of control and 117 % of control | endpoint: median survival time, dose: 100.0 mg/kg/injection, schedule: Q01DX020 (ip), vehicle: saline 115 % of control | endpoint: median survival time, dose: 100.0 mg/kg/injection, schedule: Q04DX002 (ip), vehicle: saline with Tween-80 111 % of control | endpoint: median survival time, dose: 150.0 mg/kg/injection, schedule: Q01DX009 (ip), vehicle: saline 114 % of control | endpoint: median survival time, dose: 200.0 mg/kg/injection, schedule: Q01DX020 (ip), vehicle: saline 115 % of control | endpoint: median survival time, dose: 200.0 mg/kg/injection, schedule: Q04DX002 (ip), vehicle: saline with Tween-80 100 % of control | endpoint: median survival time, dose: 400.0 mg/kg/injection, schedule: Q01DX020 (ip), vehicle: saline 118 % of control | endpoint: median survival time, dose: 400.0 mg/kg/injection, schedule: Q04DX002 (ip), vehicle: saline with Tween-80 100 % of control | endpoint: median survival time, dose: 800.0 mg/kg/injection, schedule: Q01DX020 (ip), vehicle: saline 118 % of control

O=C1C=C/C(=N\N=C2/C=CC(=O)O2)O1
inactive: [13] 100 % of control | [14] 91 % of control

O=C(Cl)c1ccc([N+](=O)[O-])cc1
inactive: [15] 96 % of control | [1] 101 % of control | [3] 104 % of control

CCOC(=O)Nc1cc(F)ccc1F
inactive: endpoint: mean survival time, dose: 100.0 mg/kg/injection, schedule: Q01DX009 (ip), vehicle: other 103 % of control | endpoint: mean survival time, dose: 200.0 mg/kg/injection, schedule: Q01DX009 (ip), vehicle: other 94 % of control | endpoint: mean survival time, dose: 400.0 mg/kg/injection, schedule: Q01DX009 (ip), vehicle: other 95 % of control

O=C1C(c2ccccc2)=C(c2ccccc2)c2cc(Br)c(Br)cc21
inactive: endpoint: mean survival time, dose: 50.0 mg/kg/injection, schedule: Q01DX001 (ip), vehicle: saline with Tween-80 93 % of control | [10] 93 % of control | [11] 93 % of control

CC(C)(CCC(C)(C)c1ccccc1)c1ccccc1
inactive: [15] 96 % of control | [1] 96 % of control | [3] 96 % of control

COc1cc(OC)c(NC(=O)C(=O)Nc2cc(Cl)c(OC)cc2OC)cc1Cl
inactive: [15] 88 % of control | [1] 88 % of control | [3] 91 % of control
